Assay results as given in US20040006236A1, “Diaminopropionic acid derivatives” (priority 1999, published 2004).
Like-named read-outs stand apart in the source and are kept apart here.

How the values were obtained:
[1] = target: T1, ICAM-1 binding to immobilized Mac-1 (Homo sapiens, UniProt P05107+P11215); experiment: Mac-1/ICAM-1 screening assay (solid-phase ELISA); conditions: read-out: Mac-1/ICAM-1 Protein-Protein Assay IC50
T1 construct: made in house; host or cells: transfected 293 cells (Mac-1)
T1 sequence (P05107 23-769, other chains not shown): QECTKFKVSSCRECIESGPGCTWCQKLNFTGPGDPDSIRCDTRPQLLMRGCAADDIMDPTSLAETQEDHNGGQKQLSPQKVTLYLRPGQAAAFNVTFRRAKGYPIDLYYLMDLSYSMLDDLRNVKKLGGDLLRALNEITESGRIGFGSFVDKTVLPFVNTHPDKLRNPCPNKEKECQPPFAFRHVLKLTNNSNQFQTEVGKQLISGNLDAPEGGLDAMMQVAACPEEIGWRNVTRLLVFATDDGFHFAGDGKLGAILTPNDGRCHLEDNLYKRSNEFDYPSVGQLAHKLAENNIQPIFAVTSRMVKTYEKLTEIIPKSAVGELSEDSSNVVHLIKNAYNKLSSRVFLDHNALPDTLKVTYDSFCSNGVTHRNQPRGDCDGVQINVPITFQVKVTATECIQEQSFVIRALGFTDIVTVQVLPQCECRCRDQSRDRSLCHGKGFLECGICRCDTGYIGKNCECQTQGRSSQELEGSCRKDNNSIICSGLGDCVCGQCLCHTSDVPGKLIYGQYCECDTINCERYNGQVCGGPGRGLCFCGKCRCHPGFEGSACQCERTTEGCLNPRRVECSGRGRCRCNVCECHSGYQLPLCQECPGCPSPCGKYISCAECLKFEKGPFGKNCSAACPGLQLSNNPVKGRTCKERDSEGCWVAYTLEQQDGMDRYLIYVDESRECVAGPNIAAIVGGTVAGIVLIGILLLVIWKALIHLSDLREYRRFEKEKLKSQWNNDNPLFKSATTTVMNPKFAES
Outline: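 Competitive solid-phase ELISA: membrane Mac-1 from transfected 293 cells coated at 3 μg/mL in 20 mM Hepes pH 7.2/0.14 M NaCl/1 mM MnCl2; compounds (0.12 nM-20 μM, 1:4 series) plus 5dICAM-Ig (40 μg/mL, added) 2 h at 37° C. Bound ICAM-Ig detected with HRP anti-human IgG Fc, TMB, A450; IC50 reported.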

[2] = system: T lymphocyte proliferation (C57BI/6 spleen cells with irradiated BALB/c spleen cells); experiment: Mixed lymphocyte reaction (MLR), one-way; format: cell-based, mice; conditions: read-out: MLR IC50
Outline: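 Irradiated BALB/c spleen cells mixed with C57BI/6 spleen cells in RPMI1640/10% heat-inactivated FBS/2-mercaptoethanol, with serial antagonist dilutions; 3 days at 5% CO2. Tritiated thymidine (0.5 μCi/well) added on day 3; incorporation counted by liquid scintillation after a further 6 h.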

SMILES	IC50 [1] [nM]	IC50 ([2]; Mus musculus, T-lymphocyte) [nM]	IC50 [2] [nM]
COc1cccc(C(=O)NC[C@H](NC(=O)c2ccc(C(=O)NCc3cccc(O)c3)cc2Cl)C(=O)O)c1 [Example 76, N-[2-chloro-4-[[[(3-hydroxyphenyl)methyl]amino]-carbonyl]benzoyl]-3-(3-methoxybenzoylamino)-L-alanine]	6.8	310	–
O=C1CC[C@@H](C(=O)NC[C@H](NC(=O)c2ccc(C(=O)NCc3cccc(O)c3)cc2Cl)C(=O)O)O1 [Example 96]	56	1300	–
O=C(NCc1cccc(O)c1)c1ccc(C(=O)N[C@@H](CNC(=O)C2CC2)C(=O)O)c(Cl)c1 [Example 97]	121	1550	–
O=C(NCc1cccc(O)c1)c1ccc(C(=O)N[C@@H](CNC(=O)C2(c3ccccc3)CC2)C(=O)O)c(Cl)c1 [Example 99]	50	2000	–
O=C(NCc1cccc(O)c1)c1ccc(C(=O)N[C@@H](CNC(=O)C2CCC2)C(=O)O)c(Cl)c1 [Example 100]	32	705	–
O=C(NCc1cccc(O)c1)c1ccc(C(=O)N[C@@H](CNC(=O)C2CCCC2)C(=O)O)c(Cl)c1 [Example 101]	29	565	–
COCCC1(C(=O)NC[C@H](NC(=O)c2ccc(C(=O)NCc3cccc(O)c3)cc2Cl)C(=O)O)CCCC1 [Example 102]	50	400	–
O=C(NCc1cccc(O)c1)c1ccc(C(=O)N[C@@H](CNC(=O)C2(c3ccccc3)CCCC2)C(=O)O)c(Cl)c1 [Example 103]	21	520	–
O=C(NCc1cccc(O)c1)c1ccc(C(=O)N[C@@H](CNC(=O)C2CCCCC2)C(=O)O)c(Cl)c1 [Example 104]	25	775	–
CC1(C(=O)NC[C@H](NC(=O)c2ccc(C(=O)NCc3cccc(O)c3)cc2Cl)C(=O)O)CCCCC1 [Example 105]	22	280	–
O=C(NCc1cccc(O)c1)c1ccc(C(=O)N[C@@H](CNC(=O)[C@H](CC2CCCCC2)n2cccc2)C(=O)O)c(Cl)c1 [Example 110]	272	10000	–
Cc1noc(C)c1CCC(=O)NC[C@H](NC(=O)c1ccc(C(=O)NCc2cccc(O)c2)cc1Cl)C(=O)O [Example 111]	44	500	–
O=C(CCN1CCCCC1)NC[C@H](NC(=O)c1ccc(C(=O)NCc2cccc(O)c2)cc1Cl)C(=O)O [Example 112]	18	375	–
C/C=C/C(=O)NC[C@H](NC(=O)c1ccc(C(=O)NCc2cccc(O)c2)cc1Cl)C(=O)O [Example 113]	30	350	–
COc1ccc(/C=C/C(=O)NC[C@H](NC(=O)c2ccc(C(=O)NCc3cccc(O)c3)cc2Cl)C(=O)O)cc1 [Example 114]	48	1650	–
O=C(/C=C/c1cccnc1)NC[C@H](NC(=O)c1ccc(C(=O)NCc2cccc(O)c2)cc1Cl)C(=O)O [Example 115]	43	1350	–
O=C(/C=C/c1cccs1)NC[C@H](NC(=O)c1ccc(C(=O)NCc2cccc(O)c2)cc1Cl)C(=O)O [Example 116]	18	1300	–
CC(=O)Oc1ccccc1C(=O)NC[C@H](NC(=O)c1ccc(C(=O)NCc2cccc(O)c2)cc1Cl)C(=O)O [Example 117]	33	290	–
Nc1cccc(C(=O)NC[C@H](NC(=O)c2ccc(C(=O)NCc3cccc(O)c3)cc2Cl)C(=O)O)c1 [Example 118]	23	–	145
NS(=O)(=O)c1ccc(C(=O)NC[C@H](NC(=O)c2ccc(C(=O)NCc3cccc(O)c3)cc2Cl)C(=O)O)cc1 [Example 119]	26	420	–
O=C(NCc1cccc(O)c1)c1ccc(C(=O)N[C@@H](CNC(=O)c2ccccc2Br)C(=O)O)c(Cl)c1 [Example 120]	114	890	–
O=C(NCc1cccc(O)c1)c1ccc(C(=O)N[C@@H](CNC(=O)c2cccc(Br)c2)C(=O)O)c(Cl)c1 [Example 121]	9	530	–
O=C(NCc1cccc(O)c1)c1ccc(C(=O)N[C@@H](CNC(=O)c2ccccc2Cl)C(=O)O)c(Cl)c1 [Example 122]	32	925	–
O=C(NCc1cccc(O)c1)c1ccc(C(=O)N[C@@H](CNC(=O)c2cccc(Cl)c2)C(=O)O)c(Cl)c1 [Example 123]	6.9	300	–
O=C(NCc1cccc(O)c1)c1ccc(C(=O)N[C@@H](CNC(=O)c2ccc(Cl)cc2)C(=O)O)c(Cl)c1 [Example 124]	35	2500	–
N#Cc1cccc(C(=O)NC[C@H](NC(=O)c2ccc(C(=O)NCc3cccc(O)c3)cc2Cl)C(=O)O)c1 [Example 126]	11	400	–
CN(C)c1cccc(C(=O)NC[C@H](NC(=O)c2ccc(C(=O)NCc3cccc(O)c3)cc2Cl)C(=O)O)c1 [Example 127]	23	455	–

SMILES	IC50 [1] [nM]	IC50 ([2]; Mus musculus, T-lymphocyte) [nM]	IC50 [2] [nM]
CN(C)c1ccc(C(=O)NC[C@H](NC(=O)c2ccc(C(=O)NCc3cccc(O)c3)cc2Cl)C(=O)O)cc1 [Example 128]	124	4900	–
CCOc1ccc(C(=O)NC[C@H](NC(=O)c2ccc(C(=O)NCc3cccc(O)c3)cc2Cl)C(=O)O)cc1 [Example 130]	53	3000	–
O=C(NCc1cccc(O)c1)c1ccc(C(=O)N[C@@H](CNC(=O)c2cccc(F)c2)C(=O)O)c(Cl)c1 [Example 131]	9.7	215	–
O=C(NCc1cccc(O)c1)c1ccc(C(=O)N[C@@H](CNC(=O)c2cccc(O)c2)C(=O)O)c(Cl)c1 [Example 132]	7	82	–
O=C(NCc1cccc(O)c1)c1ccc(C(=O)N[C@@H](CNC(=O)c2cccc(I)c2)C(=O)O)c(Cl)c1 [Example 133]	10	625	–
COc1ccccc1C(=O)NC[C@H](NC(=O)c1ccc(C(=O)NCc2cccc(O)c2)cc1Cl)C(=O)O [Example 134]	26	1550	–
COc1ccc(C(=O)NC[C@H](NC(=O)c2ccc(C(=O)NCc3cccc(O)c3)cc2Cl)C(=O)O)cc1 [Example 135]	61	2640	–
COC(=O)c1cccc(C(=O)NC[C@H](NC(=O)c2ccc(C(=O)NCc3cccc(O)c3)cc2Cl)C(=O)O)c1 [Example 136]	16	490	–
Cc1ccccc1C(=O)NC[C@H](NC(=O)c1ccc(C(=O)NCc2cccc(O)c2)cc1Cl)C(=O)O [Example 137]	22	325	–
Cc1cccc(C(=O)NC[C@H](NC(=O)c2ccc(C(=O)NCc3cccc(O)c3)cc2Cl)C(=O)O)c1 [Example 138]	10	205	–
Cc1ccc(C(=O)NC[C@H](NC(=O)c2ccc(C(=O)NCc3cccc(O)c3)cc2Cl)C(=O)O)cc1 [Example 139]	47	1750	–
O=C(NCc1cccc(O)c1)c1ccc(C(=O)N[C@@H](CNC(=O)c2ccccc2[N+](=O)[O-])C(=O)O)c(Cl)c1 [Example 140]	47	350	–
O=C(NCc1cccc(O)c1)c1ccc(C(=O)N[C@@H](CNC(=O)c2cccc([N+](=O)[O-])c2)C(=O)O)c(Cl)c1 [Example 141]	9.6	450	–
O=C(NCc1cccc(O)c1)c1ccc(C(=O)N[C@@H](CNC(=O)c2ccc([N+](=O)[O-])cc2)C(=O)O)c(Cl)c1 [Example 142]	13	500	–
CCCCCOc1ccc(C(=O)NC[C@H](NC(=O)c2ccc(C(=O)NCc3cccc(O)c3)cc2Cl)C(=O)O)cc1 [Example 143]	62	12000	–
O=C(NCc1cccc(O)c1)c1ccc(C(=O)N[C@@H](CNC(=O)c2ccccc2Oc2ccccc2)C(=O)O)c(Cl)c1 [Example 144]	53	1800	–
O=C(NCc1cccc(O)c1)c1ccc(C(=O)N[C@@H](CNC(=O)c2cc(F)c(F)cc2F)C(=O)O)c(Cl)c1 [Example 145]	24	1450	–
Cc1noc(C)c1C(=O)NC[C@H](NC(=O)c1ccc(C(=O)NCc2cccc(O)c2)cc1Cl)C(=O)O [Example 153]	203	–	–
C[C@@H](NC(=O)c1cc(Cl)c(C(=O)N[C@@H](CNC(=O)c2cccs2)C(=O)O)c(Cl)c1)c1cccc2ccccc12 [Example 346, N-[2,6-dichloro-4-[[[(1R)-1-(1-naphthalenyl)ethyl]amino]carbonyl]benzoyl]-3-[(thiophene-2-carbonyl)amino]-L-alanine]	–	68	–
C[C@@H](NC(=O)c1cc(Cl)c(C(=O)N[C@@H](CNC(=O)c2ccccc2)C(=O)O)c(Cl)c1)c1cccc2ccccc12 [Example 347]	–	250	–
O=C(NCc1cccc(O)c1)c1cc(Cl)c(C(=O)N[C@@H](CNC(=O)c2cccc(F)c2)C(=O)O)c(Cl)c1 [Example 349]	–	42	–
O=C(NCc1cccc(O)c1)c1cc(Cl)c(C(=O)N[C@@H](CNC(=O)c2cccc(O)c2)C(=O)O)c(Cl)c1 [Example 350]	–	12	–
COc1ccc(C(=O)NC[C@H](NC(=O)c2c(Cl)cc(C(=O)NCc3cccc(O)c3)cc2Cl)C(=O)O)cc1O [Example 351]	–	23	–
O=C(NCc1cccc(O)c1)c1cc(Cl)c(C(=O)N[C@@H](CNC(=O)c2sccc2Br)C(=O)O)c(Cl)c1 [Example 353]	–	52	–
O=C(NCc1cccc(O)c1)c1cc(Cl)c(C(=O)N[C@@H](CNC(=O)c2ccc(Br)s2)C(=O)O)c(Cl)c1 [Example 354]	–	203	–
Cc1ccc(C(=O)NC[C@H](NC(=O)c2c(Cl)cc(C(=O)NCc3cccc(O)c3)cc2Cl)C(=O)O)s1 [Example 358]	–	64	–
